Consider 3 compounds from paper PMC8230802, “The Effects of Food on Cannabidiol Bioaccessibility” (Molecules, 2021).

“And” between values parts separate entries of the source, which are not always exact repeats. Equal values may be shown once. Read-outs that look alike come from different tables or passages of the source.

One data set relates to lipase. As to the kind of experiment: Lipase activity assay with pNPP substrate. In kind it is biochemical. On the procedure:
The lipase, pancreatin and bile were purchased from Sigma-Aldrich. The p-nitrophenyl palmitate (pNPP), a […] compound (N2752, Sigma-Aldrich), was used as a substrate for the lipase enzyme as previously described. Upon hydrolysis of palmitate from pNPP, the resulting product is 4-nitrophenol (4-NP), and can be measured spectrophotometrically at 410 nm.
Final assay enzyme concentrations were 1:2 mg/mL lipase:pancreatin and 1:2:3 mg/mL lipase: pancreatin:bile using 96 well plates separately just as in the artificial digestion protocol. Controls consisted of phosphate buffer and lipase enzyme without substrate pNPP. Experimental wells contained substrate pNPP in phosphate buffer and the lipase enzyme. All experimental and control wells were performed in triplicate. Temperature was set at 37 °C and the spectrophotometer was set to collect kinetic data over 2 h for the lipase: pancreatin (1:2) experiment. Substrate concentrations were 0.1 mM and 1.0 mM and were made from the 10.0 mM stock solution of pNPP in isopropanol. 4-NP dilutions in phosphate buffer were used to make a standard curve ranging from 5–1000 µM.
On a separate 96 well plate, the same procedure was followed for the lipase: pancreatin: bile salt (1:2:3) experiment. Control and experimental samples were the same as mentioned above for the 1:2 mg/mL lipase: pancreatin experiment. […] After an incubation period of 30 min at 37 °C, 25 µL of the reaction mixture (supernatant) was taken and immediately mixed with 1 mL of 0.1 N NaOH in a 1 mL cuvette to stop the reaction and dilute the sample. The liberated pNP was detected at 410 nm, and bile salt interference was corrected by using a blank without substrate for background subtraction. The reaction rates for this experiment were obtained from the slope of the absorbance versus the time curve by using an extinction coefficient for the p-nitrophenol (pNP) that was determined from the absorbance of pNP as a standard solution.

Data set [1] is described as follows: Fasted state three-phase in vitro digestion of CBD. The data set is classed as in vitro ADME. To be noted: for Micellarization efficiency: CBD in AQ / DG x 100; for Digestive stability: CBD in DG / raw material x 100. On the procedure:
The three-step in vitro digestion employed to mimic the human digestive tract in this study consisted of an oral phase, a gastric phase, and an intestinal phase. The method used was modified slightly from a previously described protocol. For the fasted state digestion oral phase, 10 mg and 100 mg of CBD were added to 1 mL distilled water in a 50 mL pyrex glass centrifuge tube (DAIGGER Scientific, Hamilton, NJ, USA) and mixed with 1 mL oral fluid. The mixtures were vortexed for 30 s and immediately the gastric phase of digestion was started by adding pepsin into NaHCO3 and the pH was adjusted to 2.5. The mixtures were blanketed with nitrogen gas, wrapped in parafilm, and shaken in a 37 °C incubator for 1 h in the dark at 95 rpm. Meanwhile, the intestinal phase was prepared (Table S1) by mixing bile in NaHCO3 and sonicating it for 45 min. For the intestinal phase, the pancreatin-lipase (2 mL of 2:1 ratio) was mixed into the same solution as bile salt. The enzyme solution and the bile solution were added to the tube containing the gastric phase and the pH was adjusted to 6.5 using 1N NaOH. The digestion sample tubes were blanketed with nitrogen and shaken for another 2 h at 37 °C in the dark at 95 rpm. After completion of the intestinal phase, 4 mL of the resulting Digesta (DG) was transferred into conical tubes, diluted with acetonitrile DG: Acetonitrile 1:2 (v/v), blanketed with nitrogen, and kept at −80 °C for analysis by UPLC-MS. The remaining volumes of the DG samples were centrifuged at 10,000× g at 4 °C for 60 min (Beckman L7-65 Ultracentrifuge, Beckman Instruments, Palo Alto, CA, USA). After centrifugation, the aqueous supernatant (AQ) containing the micellar fractions were filtered through the 0.22 µm pore (VWR, USA), diluted with acetonitrile AQ: Acetonitrile 1:2 (v/v) and stored at −80 °C for further analysis. The insoluble pellet was dissolved into the acetonitrile 1:2 (v/v) for further analysis.
(§1) Diluted AQ and DG fractions were filtered using the 0.2 µm nylon filters for DG fraction and injected for analysis by ultra-performance liquid chromatography-mass spectrometry (UPLC-MS) to obtain CBD concentration values. Percent (%) recovery values were calculated for CBD using the following equation:(1) % Recovery=Concentration in AQ/Concentration in DG×100
(§2) CBD was quantified in pellet (P), digesta (DG) and aqueous (AQ) fractions by liquid chromatography—mass spectrometry. Digestive stability, the percentage recovery of CBD in DG fraction was calculated by dividing the moles of CBD quantified in DG by the moles of CBD quantified in raw material (RM) multiplied by 100. The micellarization efficiency is the percentage of CBD recovered in the AQ phase of digestion and was calculated by dividing the moles of CBD in AQ by the moles of CBD in DG multiplied by 100.

The nature of data set [2]: Fed state three-phase in vitro digestion of CBD (olive oil and baby food). In kind it is in vitro ADME. To be noted: for Digestive stability: CBD in DG / raw material x 100. On the procedure: For the fed in vitro digestion experiment, CBD was mixed with foods and oil. Briefly, 10 mg and 100 mg CBD were each first mixed with 0.5 g olive oil, and then added to 2 g baby food (Turkey and Gravy, Gerber, IL, USA). The oral phase samples were vortexed for 30 s followed by the gastric and intestinal phase protocols mentioned above. After the completion of the three-phase in vitro digestion procedure, 15 mL of the DG sample was collected, blanketed with nitrogen and kept at −80 °C for further analysis. The rest of the DG sample was centrifuged at 10,000× g for 1 h at 4 °C and the AQ fraction was collected, filtered, diluted in acetonitrile 1:2 (v/v) and blanketed with nitrogen and kept at −80 °C for the UPLC-MS analysis.
as §1, §2

A short description of data set [3]: MS/MS survey of metabolites in digestion phases. As to conditions: DG, AQ and P phases, negative ion mode. In kind it is in vitro ADME. On the procedure: To further confirm the presence of any metabolites in the DG, AQ, and P phases, an MS/MS survey was performed on negative ion mode with the inclusion list of all the masses for the expected metabolites (Table S2). The setting for TOF MSMS function was as follows: centroid data format, negative mode and polarity, mass rages from 100 to 1000, time 0 min to 25.0 min and scan time 2.1 s with inter scan time of 0.1 s. The instrument parameters were as follows: capillary 3000.0 V, sample cone 35.0 V, source temperature 100 °C and collision energy 5.0.

Details of data set [4]: method as in PMID 6262948. To be noted: Rhesus monkeys, on average; cited from earlier work.
On the set-up of data set [5]: method as in PMID 27648135. As to conditions: rats; cited from earlier work.
For data set [6] the following is noted: with sesame oil; cited from earlier work.

For `CCCCCCCCCCCCCCCC(=O)Oc1ccc([N+](=O)[O-])cc1` [pNPP, p-nitrophenyl palmitate], the “% mole conversion of pNPP to NP” value in the data set on lipase (0.1 mM pNPP, 1:2:3 lipase:pancreatin:bile) was 95.5 ± 7.6%; with lipase (0.1 mM pNPP, 1:2 lipase:pancreatin), 93.6 ± 0.3%; in the data set on lipase (1 mM pNPP, 1:2:3 lipase:pancreatin:bile), 58.6% and 58.6 ± 5.7%; in the data set on lipase (1 mM pNPP, 1:2 lipase:pancreatin), 20.6% and 20.6 ± 0.07%.

`C=C(C)[C@@H]1CCC(C)=C[C@H]1c1c(O)cc(CCCCC)cc1O` [CBD, Cannabidiol]: the Micellarization efficiency in data set [1] (10 mg CBD) is listed as 0.65 ± 0.7%; in data set [1] (100 mg CBD), 0.14 ± 0.1%; in data set [2] (fed state digestion, 10 mg CBD, CBD in AQ / DG x 100), 14.15 ± 0.6%. Also, the Digestive stability turned out to be 72.99 ± 6% in data set [1] (10 mg CBD); 95.67 ± 2% in data set [1] (100 mg CBD); 91.39 ± 25% in data set [2] (fed state digestion, 10 mg CBD); 83.1 ± 25% in data set [2] (fed state digestion, 100 mg CBD). Moreover, the recovery at 3 h, 10 mg CBD per digestion (in 1 mL water + 1 mL oral fluid) came to 0.69 ± 1.5% in data set [1] (10 mg CBD, read-out: % recovery in aqueous (AQ) micellar fraction); 73 ± 6% in data set [1] (10 mg CBD, read-out: % recovery in digesta (DG)); 92.2 ± 10% in data set [1] (10 mg CBD, read-out: % recovery in pellet (P)). For the same compound, the recovery at 3 h, 100 mg CBD per digestion (in 1 mL water + 1 mL oral fluid) in data set [1] (100 mg CBD, read-out: % recovery in aqueous (AQ) micellar fraction) stood at 0.15 ± 1%; in data set [1] (100 mg CBD, read-out: % recovery in digesta (DG)), 95.7 ± 2%; in data set [1] (100 mg CBD, read-out: % recovery in pellet (P)) it was 74.1 ± 1.3%. For the same compound, the “Increase in CBD recovery in the micellar fraction, fed vs fasted state digestion” value in data set [2] (fed digestion compared to fasted state digestion) was determined as 22 fold. For the same compound, the recovery at 3 h, 10 mg CBD per digestion (in 0.5 g olive oil + 2 g baby food) stood at 12.9 ± 7% in data set [2] (fed state digestion, 10 mg CBD, read-out: % recovery in aqueous (AQ) micellar fraction); 91.4 ± 25% in data set [2] (fed state digestion, 10 mg CBD, read-out: % recovery in digesta (DG)); 90.2 ± 18% in data set [2] (fed state digestion, 10 mg CBD, read-out: % recovery in pellet (P)). Further, the recovery at 3 h, 100 mg CBD per digestion (in 0.5 g olive oil + 2 g baby food) was determined as 18.6 ± 10% in data set [2] (fed state digestion, 100 mg CBD, read-out: % recovery in aqueous (AQ) micellar fraction); 83.1 ± 25% in data set [2] (fed state digestion, 100 mg CBD, read-out: % recovery in digesta (DG)); 87.9 ± 29% in data set [2] (fed state digestion, 100 mg CBD, read-out: % recovery in pellet (P)). Also, the “Metabolites of CBD in digestion phases (MS/MS survey)” value in data set [3] is listed as “No metabolites of CBD were observed”. In addition, the Oral bioavailability in data set [4] is on record as 16%. Moreover, in data set [5], the “Increase in bioavailability by co-administration of lipids” value is given as 2.5 fold. In addition, the “Recovery / bioavailable in the micellar fraction” value in data set [6] is listed as 30%.

As for `CCCCCc1cc(O)c2c(c1)OC(C)(C)[C@@H]1CCC(C)=C[C@@H]21` [THC, Δ9-tetrahydrocannabinol], the “Increase in bioavailability by co-administration of lipids” value in data set [5] was 3 fold. Moreover, the “Recovery / bioavailable in the micellar fraction” value in data set [6] is given as 30%.
